Results as given in patent US10829649B2, “Methods and coatings for protecting surfaces from bio-fouling species” (priority 2018, dated 2020).
Values after ≈ are worked out from the molar mass of the structure shown. Where two headings read alike, the source gives them in different places.

Tests used:
[1] = cited from earlier work
[2] = soil and water runoff; cited from earlier work
[3] = tested on: barnacle or mussel larvae; test: biocide-impregnated polymer without outer biostatic layer exposed to larvae; type: in vivo; settings: weeks or months later; no outer biostatic layer
Excerpt: With respect to undesirable effects on the aquatic environment and the benign and beneficial organisms that reside there, the outer biostatic layer is less potentially hazardous both for the chemical and physical reasons mentioned above and shields the water from contact with the more potentially hazardous inner biocidal layer. Also, when an occasional barnacle or mussel larva penetrates the outer layer and touches the inner layer as a juvenile, it is killed quickly and outright on contact. It has been experimentally observed that, when a polymer impregnated with a biocidal biocide such as ivermectin is exposed to barnacle or mussel larvae, and there is no outer biostatic attachment inhibiting polymer layer present, that larvae do attach regardless and grow on the surface of the polymer layer. The organisms with their tiny shells can be seen with a magnifying glass. […] With the present embodiments, the area of the puncture site of the inner layer is microscopic and thus nothing leaks out of the inner layer into the surrounding water.

| Compound | water solubility [1] | adsorption coefficient KOC [2] | further results |
| --- | --- | --- | --- |
| Cc1cccc(C(C)c2cnc[nH]2)c1C (stereo not shown) [Medetomidine] | 186 mg/L (≈ 929 µM) |  |  |
| [Ag+].[O-][n+]1ccccc1[S-] [silver pyrithione] |  |  | water solubility ([1]; silver pyrithione): about 37 per L |
| CC[C@H]1CCC[C@H](O[C@H]2CC[C@H](N(C)C)[C@@H](C)O2)[C@@H](C)C(=O)C2=C[C@@H]3[C@@H](C=C(C)[C@@H]4C[C@@H](O[C@@H]5O[C@@H](C)[C@H](OC)[C@@H](OC)[C@H]5OC)C[C@@H]34)[C@@H]2CC(=O)O1 [spinosad D] |  | 34,600 |  |
| CC(C)[C@]12O[C@H]1[C@@H]1O[C@]13[C@]1(O[C@H]1C[C@H]1C4=C(CC[C@@]13C)C(=O)OC4)[C@@H]2O [triptolide] | 0.017 mg/L (≈ 0.0472 µM) |  |  |
| [O]=[Zn] [zinc oxide] |  |  | water solubility ([1]; pure water): about 16 mg/L |
| ivermectin |  |  | adult barnacles or mussels on the polymer layer [3]: no adult barnacle or mussel adults are seen |
| pyrethrins | < 0.1 mg/L | > 100,000 |  |
| spinosad |  | 34,600 |  |
| zinc pyrithione |  |  | water solubility ([1]; metal pyrithione salts): about 12 mg per L |
